Numbers after ± are expanded uncertainties.
Assay: xn = mol fraction of the nth substance listed
Conditions: Fluid (supercritical or subcritical phases), Buoyancy - hydrostatic balance with magnetic suspension - one sinker

`[C-]#[O+]` [carbon monoxide] + N#N showed a mass density (324.98 K, 9998.7 kPa, x1 = 0.1002) of 101.905 ± 0.12 kg/m3, a mass density (324.98 K, 10007 kPa, x1 = 0.04999) of 101.939 ± 0.12 kg/m3 and a mass density (324.98 K, 10997 kPa, x1 = 0.04999) of 111.619 ± 0.14 kg/m3. For the same compound, the mass density (324.98 K, 11997 kPa, x1 = 0.1002) was 121.32 ± 0.15 kg/m3, the mass density (324.98 K, 12000 kPa, x1 = 0.04999) was 121.293 ± 0.15 kg/m3 and the mass density (324.98 K, 12999 kPa, x1 = 0.04999) was 130.817 ± 0.16 kg/m3. The mass density (324.98 K, 13996 kPa, x1 = 0.1002) was 140.254 ± 0.17 kg/m3, the mass density (324.98 K, 15957 kPa, x1 = 0.04999) was 158.239 ± 0.19 kg/m3 and the mass density (324.98 K, 15995 kPa, x1 = 0.1002) was 158.639 ± 0.19 kg/m3. For the same compound, the mass density (324.98 K, 17995 kPa, x1 = 0.04999) was 176.379 ± 0.21 kg/m3, the mass density (324.98 K, 17996 kPa, x1 = 0.1002) was 176.463 ± 0.21 kg/m3 and the mass density (324.98 K, 19931 kPa, x1 = 0.04999) was 193.033 ± 0.23 kg/m3. For the same compound, the mass density (324.98 K, 19948 kPa, x1 = 0.1002) was 193.262 ± 0.23 kg/m3, the mass density (324.99 K, 14116 kPa, x1 = 0.04999) was 141.303 ± 0.17 kg/m3 and the mass density (349.96 K, 991.96 kPa, x1 = 0.1002) was 9.538 ± 0.012 kg/m3. The mass density (349.96 K, 2999.2 kPa, x1 = 0.1002) was 28.731 ± 0.035 kg/m3, the mass density (349.96 K, 4997.9 kPa, x1 = 0.1002) was 47.663 ± 0.058 kg/m3 and the mass density (349.96 K, 6997.9 kPa, x1 = 0.1002) was 66.355 ± 0.081 kg/m3. For the same compound, the mass density (349.96 K, 8997.6 kPa, x1 = 0.1002) was 84.725 ± 0.1 kg/m3, the mass density (349.96 K, 10998 kPa, x1 = 0.1002) was 102.742 ± 0.12 kg/m3 and the mass density (349.96 K, 12999 kPa, x1 = 0.1002) was 120.335 ± 0.15 kg/m3. For the same compound, the mass density (349.96 K, 14996 kPa, x1 = 0.1002) was 137.446 ± 0.17 kg/m3, the mass density (349.96 K, 16994 kPa, x1 = 0.1002) was 154.09 ± 0.19 kg/m3 and the mass density (349.96 K, 18214 kPa, x1 = 0.1002) was 164 ± 0.2 kg/m3. It also gave a mass density (349.97 K, 991.18 kPa, x1 = 0.04999) of 9.53 ± 0.012 kg/m3, a mass density (349.97 K, 993.39 kPa, x1 = 0.1002) of 9.551 ± 0.012 kg/m3 and a mass density (349.97 K, 1959 kPa, x1 = 0.04999) of 18.808 ± 0.023 kg/m3. The mass density (349.97 K, 1978.8 kPa, x1 = 0.1002) was 18.999 ± 0.023 kg/m3, the mass density (349.97 K, 3922.5 kPa, x1 = 0.1002) was 37.508 ± 0.046 kg/m3 and the mass density (349.97 K, 4004.8 kPa, x1 = 0.04999) was 38.283 ± 0.047 kg/m3. For the same compound, the mass density (349.97 K, 5997.7 kPa, x1 = 0.1002) was 57.048 ± 0.069 kg/m3, the mass density (349.97 K, 5998.2 kPa, x1 = 0.04999) was 57.037 ± 0.069 kg/m3 and the mass density (349.97 K, 7998.9 kPa, x1 = 0.1002) was 75.601 ± 0.092 kg/m3. It also gave a mass density (349.97 K, 8018.6 kPa, x1 = 0.04999) of 75.757 ± 0.092 kg/m3, a mass density (349.97 K, 9998.3 kPa, x1 = 0.1002) of 93.794 ± 0.11 kg/m3 and a mass density (349.97 K, 10022 kPa, x1 = 0.04999) of 93.976 ± 0.11 kg/m3. It also gave a mass density (349.97 K, 11997 kPa, x1 = 0.1002) of 111.586 ± 0.14 kg/m3, a mass density (349.97 K, 12018 kPa, x1 = 0.04999) of 111.731 ± 0.14 kg/m3 and a mass density (349.97 K, 13995 kPa, x1 = 0.1002) of 128.938 ± 0.16 kg/m3. It also gave a mass density (349.97 K, 13997 kPa, x1 = 0.04999) of 128.911 ± 0.16 kg/m3, a mass density (349.97 K, 15994 kPa, x1 = 0.04999) of 145.784 ± 0.18 kg/m3 and a mass density (349.97 K, 15994 kPa, x1 = 0.1002) of 145.829 ± 0.18 kg/m3. For the same compound, the mass density (349.97 K, 17992 kPa, x1 = 0.04999) was 162.172 ± 0.2 kg/m3, the mass density (349.97 K, 17992 kPa, x1 = 0.1002) was 162.217 ± 0.2 kg/m3 and the mass density (349.97 K, 19655 kPa, x1 = 0.04999) was 175.42 ± 0.21 kg/m3. For the same compound, the mass density (349.97 K, 19959 kPa, x1 = 0.1002) was 177.859 ± 0.22 kg/m3, the mass density (374.95 K, 1995 kPa, x1 = 0.1002) was 17.848 ± 0.022 kg/m3 and the mass density (374.95 K, 2998.2 kPa, x1 = 0.1002) was 26.743 ± 0.033 kg/m3. It also gave a mass density (374.95 K, 4980.9 kPa, x1 = 0.1002) of 44.17 ± 0.054 kg/m3, a mass density (374.95 K, 6997.6 kPa, x1 = 0.1002) of 61.627 ± 0.075 kg/m3 and a mass density (374.95 K, 8997.4 kPa, x1 = 0.1002) of 78.624 ± 0.096 kg/m3. It also gave a mass density (374.95 K, 10995 kPa, x1 = 0.1002) of 95.265 ± 0.12 kg/m3, a mass density (374.95 K, 12994 kPa, x1 = 0.1002) of 111.524 ± 0.14 kg/m3 and a mass density (374.95 K, 15016 kPa, x1 = 0.1002) of 127.569 ± 0.15 kg/m3. The mass density (374.95 K, 16990 kPa, x1 = 0.1002) was 142.823 ± 0.17 kg/m3, the mass density (374.95 K, 19967 kPa, x1 = 0.1002) was 165.012 ± 0.2 kg/m3 and the mass density (374.96 K, 991.14 kPa, x1 = 0.04999) was 8.887 ± 0.011 kg/m3. It also gave a mass density (374.96 K, 993.41 kPa, x1 = 0.1002) of 8.908 ± 0.011 kg/m3, a mass density (374.96 K, 1989.3 kPa, x1 = 0.04999) of 17.794 ± 0.022 kg/m3 and a mass density (374.96 K, 3998.5 kPa, x1 = 0.04999) of 35.556 ± 0.043 kg/m3. It also gave a mass density (374.96 K, 4004.8 kPa, x1 = 0.1002) of 35.621 ± 0.043 kg/m3, a mass density (374.96 K, 5997.9 kPa, x1 = 0.04999) of 52.996 ± 0.065 kg/m3 and a mass density (374.96 K, 5999 kPa, x1 = 0.1002) of 53.019 ± 0.065 kg/m3. The mass density (374.96 K, 7996.5 kPa, x1 = 0.04999) was 70.138 ± 0.085 kg/m3, the mass density (374.96 K, 8024.2 kPa, x1 = 0.1002) was 70.391 ± 0.086 kg/m3 and the mass density (374.96 K, 9996 kPa, x1 = 0.04999) was 86.957 ± 0.11 kg/m3. It also gave a mass density (374.96 K, 9997.9 kPa, x1 = 0.1002) of 86.999 ± 0.11 kg/m3, a mass density (374.96 K, 11988 kPa, x1 = 0.1002) of 103.381 ± 0.13 kg/m3 and a mass density (374.96 K, 11996 kPa, x1 = 0.04999) of 103.411 ± 0.13 kg/m3. For the same compound, the mass density (374.96 K, 13993 kPa, x1 = 0.1002) was 119.504 ± 0.14 kg/m3, the mass density (374.96 K, 13995 kPa, x1 = 0.04999) was 119.477 ± 0.14 kg/m3 and the mass density (374.96 K, 15990 kPa, x1 = 0.04999) was 135.101 ± 0.16 kg/m3. For the same compound, the mass density (374.96 K, 15990 kPa, x1 = 0.1002) was 135.151 ± 0.16 kg/m3, the mass density (374.96 K, 17987 kPa, x1 = 0.1002) was 150.362 ± 0.18 kg/m3 and the mass density (374.96 K, 17988 kPa, x1 = 0.04999) was 150.312 ± 0.18 kg/m3. For the same compound, the mass density (374.96 K, 18988 kPa, x1 = 0.1002) was 157.82 ± 0.19 kg/m3, the mass density (374.96 K, 19817 kPa, x1 = 0.04999) was 163.859 ± 0.2 kg/m3 and the mass density (374.96 K, 19971 kPa, x1 = 0.1002) was 165.047 ± 0.2 kg/m3. For the same compound, the mass density (400.02 K, 984.4 kPa, x1 = 0.1002) was 8.268 ± 0.01 kg/m3, the mass density (400.02 K, 997.16 kPa, x1 = 0.1002) was 8.375 ± 0.011 kg/m3 and the mass density (400.02 K, 1934.5 kPa, x1 = 0.04999) was 16.2 ± 0.02 kg/m3. It also gave a mass density (400.02 K, 1975.5 kPa, x1 = 0.1002) of 16.545 ± 0.02 kg/m3, a mass density (400.02 K, 2994.3 kPa, x1 = 0.1002) of 24.985 ± 0.031 kg/m3 and a mass density (400.02 K, 3986.3 kPa, x1 = 0.04999) of 33.151 ± 0.04 kg/m3. The mass density (400.02 K, 3997.3 kPa, x1 = 0.1002) was 33.254 ± 0.041 kg/m3, the mass density (400.02 K, 4997.1 kPa, x1 = 0.1002) was 41.415 ± 0.05 kg/m3 and the mass density (400.02 K, 5996.1 kPa, x1 = 0.1002) was 49.523 ± 0.06 kg/m3. The mass density (400.02 K, 5998 kPa, x1 = 0.04999) was 49.518 ± 0.06 kg/m3, the mass density (400.02 K, 7005.5 kPa, x1 = 0.1002) was 57.622 ± 0.07 kg/m3 and the mass density (400.02 K, 7994.6 kPa, x1 = 0.1002) was 65.495 ± 0.08 kg/m3. For the same compound, the mass density (400.02 K, 7996.6 kPa, x1 = 0.04999) was 65.491 ± 0.08 kg/m3, the mass density (400.02 K, 8987 kPa, x1 = 0.1002) was 73.307 ± 0.089 kg/m3 and the mass density (400.02 K, 9895.5 kPa, x1 = 0.1002) was 80.402 ± 0.098 kg/m3. For the same compound, the mass density (400.02 K, 9973.2 kPa, x1 = 0.04999) was 80.982 ± 0.098 kg/m3, the mass density (400.02 K, 11025 kPa, x1 = 0.1002) was 89.118 ± 0.11 kg/m3 and the mass density (400.02 K, 11992 kPa, x1 = 0.04999) was 96.459 ± 0.12 kg/m3. For the same compound, the mass density (400.02 K, 11994 kPa, x1 = 0.1002) was 96.505 ± 0.12 kg/m3, the mass density (400.02 K, 12991 kPa, x1 = 0.1002) was 104.017 ± 0.13 kg/m3 and the mass density (400.02 K, 13990 kPa, x1 = 0.04999) was 111.428 ± 0.14 kg/m3. For the same compound, the mass density (400.02 K, 13990 kPa, x1 = 0.1002) was 111.464 ± 0.14 kg/m3, the mass density (400.02 K, 14988 kPa, x1 = 0.1002) was 118.8 ± 0.14 kg/m3 and the mass density (400.02 K, 15986 kPa, x1 = 0.04999) was 126.014 ± 0.15 kg/m3. The mass density (400.02 K, 15986 kPa, x1 = 0.1002) was 126.048 ± 0.15 kg/m3, the mass density (400.02 K, 16227 kPa, x1 = 0.1002) was 127.785 ± 0.15 kg/m3 and the mass density (400.02 K, 17982 kPa, x1 = 0.1002) was 140.257 ± 0.17 kg/m3. For the same compound, the mass density (400.02 K, 17985 kPa, x1 = 0.04999) was 140.246 ± 0.17 kg/m3, the mass density (400.02 K, 19027 kPa, x1 = 0.04999) was 147.507 ± 0.18 kg/m3 and the mass density (400.03 K, 18458 kPa, x1 = 0.1002) was 143.591 ± 0.17 kg/m3.

From the NIST ThermoML archive (doi:10.1021/je2007764)
